One series has as its system RSV A2. Description: RSV plaque reduction assay in Hep-G2 cells. The series is classed as cell-based, respiratory syncytial virus (RSV). The following applies: human respiratory syncytial virus, HepG2, 48 h, Hep-G2 cells, RSV A2, 2 days; mean of at least two experiments; read-out: RSV A2 Plaque EC50. How it is done: Compounds were subjected to RSV plaque reduction assays according to the following protocol. Plaque EC50 and cell toxicity CC50 values are a mean of at least two experiments and figures are rounded to whole units.
Hep-G2 cells (ECACC, 85011430) were passaged in flasks and seeded in 24-well plates in DMEM containing antibiotics and supplemented with 10% FBS. During inoculation and subsequent incubation, cells were cultured in DMEM containing 2% FBS. 100 plaque forming unit/well of RSV (RSV A2 ECACC, 0709161v) was mixed with eight serial dilutions of compound. Subsequently, 100 μL of the virus/compound mixtures was added to confluent Hep-G2 cell monolayers. The cells and virus/compound mixtures were incubated at 37° C. in a humidified 5% CO2 incubator for 2 h prior to removal of the inoculum and addition of 1 mL of overlay (DMEM containing 2% FBS and 0.8% CMC) containing compound dilutions. The cells and were incubated at 37° C. in a humidified 5% CO2 incubator for 2 days.
Cells were washed with PBS before adding 75/25% v/v EtOH/MeOH, for 3 min. Fixative was removed and plates were washed with PBS. A pre-titrated amount of the primary antibody was added in 200 μL PBS/2% milk powder, and plates incubated for 90 min at 37° C. The plates were washed 3 times with PBS/0.05% Tween20 before addition of rabbit anti-goat horse radish peroxidase in 200 μL PBS/2% milk powder, and incubated for 1 h at 37° C. Following three wash steps with PBS/0.05% Tween20, 200 μL ready-to-use TrueBlue was added and plates were incubated at rt for 10-15 min before washing with water. After removal of water, plates were air-dried in the dark. Plates were scanned and analysed using the Immunospot S6 Macro analyser, which is equipped with BioSpot analysis software for counting immunostained plaques (virospots). Plaque counts were used to calculate % infection relative to the mean of the plaque count in the virus control wells for RSV. The EC50 value was calculated as 50% reduction in signal, respectively, by interpolation of inhibition curves fitted with a 4-parameter nonlinear regression with a variable slope in Dotmatics. Plaque EC50 and cell toxicity CC50 values are a mean of at least two experiments and figures are rounded to whole units.

The next series is described as follows: Cell cytotoxicity CC50. Format: cell-based. Conditions: human, Hep-G2 cells; mean of at least two experiments unless (n = 1).
Series [1] is described as follows: Liver microsomal stability, rat. The series is classed as in vitro ADME. Conditions: pooled liver microsomes, pH 7.4, 0.5 mg/mL protein, 1 μM compound, NADPH, read-out: Liver Microsomal Stability t1/2. How it is done: (§1) Compounds were subjected to the following assays to investigate liver microsomal stability and hepatocyte stability.
(§2) Pooled liver microsomes were purchased from a reputable commercial supplier and stored at −80° C. prior to use. Microsomes (final protein concentration 0.5 mg/mL), 0.1 M phosphate buffer pH 7.4 and test compound (final substrate concentration 1 μM; final DMSO concentration 0.25%) were pre-incubated at 37° C. prior to the addition of NADPH (final concentration 1 mM) to initiate the reaction. The final incubation volume was 50 μL. A control incubation was included for each compound tested where 0.1 M phosphate buffer pH 7.4 was added instead of NADPH (minus NADPH). Two control compounds were included with each species. All incubations were performed singularly for each test compound. Each compound was incubated for 0, 5, 15, 30 and 45 min. The control (minus NADPH) was incubated for 45 min only. The reactions were stopped by transferring incubate into acetonitrile at the appropriate time points, in a 1:3 ratio. The termination plates are centrifuged at 3,000 rpm for 20 min at 4° C. to precipitate the protein. Following protein precipitation, the sample supernatants were combined in cassettes of up to 4 compounds, internal standard added, and samples analysed by LC-MS/MS. From a plot of In peak area ratio (compound peak area/internal standard peak area) against time, the gradient of the line was determined. Subsequently, half-life (t1/2) and intrinsic clearance (CLint) were calculated.

A short description of series [2]: Liver microsomal stability, dog. Format: in vitro ADME. The following applies: pooled liver microsomes, pH 7.4, 0.5 mg/mL protein, 1 μM compound, NADPH, read-out: Liver Microsomal Stability t1/2. Here is the method: as §1, §2
Series [3] can be described thus: Liver microsomal stability, human. Format: in vitro ADME. The following applies: pooled liver microsomes, pH 7.4, 0.5 mg/mL protein, 1 μM compound, NADPH, read-out: Liver Microsomal Stability t1/2. Here is the method:
as §1, §2

Series [4] can be described thus: Hepatocyte stability, rat. Format: in vitro ADME. The following applies: cryopreserved pooled hepatocytes, 3 μM compound, 60 min, read-out: Liver Hepatocyte Stability t1/2. How it is done:
as §1
(§3) Cryopreserved pooled hepatocytes were purchased from a reputable commercial supplier and stored in liquid nitrogen prior to use. Williams E media supplemented with 2 mM L-glutamine and 25 mM HEPES and test compound (final substrate concentration 3 μM; final DMSO concentration 0.25%) are pre-incubated at 37° C. prior to the addition of a suspension of cryopreserved hepatocytes (final cell density 0.5 ×10^6 viable cells/mL in Williams E media supplemented with 2 mM L-glutamine and 25 mM HEPES) to initiate the reaction. The final incubation volume is 500 μL. Two control compounds were included with each species, alongside appropriate vehicle control. The reactions were stopped by transferring 50 μL of incubate to 100 μL acetonitrile containing internal standard at the appropriate time points. Samples were removed at 6 time points (0, 5, 15, 30, 45 and 60 min) over the course of a 60 min experiment. The termination plates were centrifuged at 2500 rpm at 4° C. for 30 min to precipitate the protein.
(§4) Following protein precipitation, the sample supernatants were combined in cassettes of up to 4 compounds and analysed using generic LC-MS/MS conditions. From a plot of In peak area ratio (compound peak area/internal standard peak area) against time, the gradient of the line was determined. Subsequently, half-life (t1/2) and intrinsic clearance (CLint) were calculated.

Series [5] is described as follows: Hepatocyte stability, dog. The series is classed as in vitro ADME. Conditions: cryopreserved pooled hepatocytes, 3 μM compound, 60 min, read-out: Liver Hepatocyte Stability t1/2. How it is done: as §1, §3, §4
A short description of series [6]: Hepatocyte stability, human. The series is classed as in vitro ADME. Conditions: cryopreserved pooled hepatocytes, 3 μM compound, 60 min, read-out: Liver Hepatocyte Stability t1/2. How it is done:
as §1, §3, §4

A short description of series [7]: In vivo pharmacokinetics in rats (IV and PO). On the set-up: species or system Male rats [Sprague Dawley (SD)]. Conditions: male SD rat; for half-life / Vd / clearance / Cmax / AUC(0-t): Sprague Dawley, plasma; for Vd / clearance / Cmax: study IV 1 mg/kg; for Cmax: route not given; for AUC(0-t): read-out: PO AUClast; for F: PO 10 mg/kg vs IV 1 mg/kg. Here is the method: The pharmacokinetics of compounds were studied in vivo in rats at doses of 1 mg/kg (IV) and 10 mg/kg (PO).
Male rats [Sprague Dawley (SD)] surgically prepared with a jugular vein cannula were treated with experimental compounds via intravenous administration (IV; n=3; 1 mg/kg) or oral administration (PO; n=3; 10 mg/kg). Compounds were formulated as a solution in 40:60 dimethylacetamide:saline (IV administration) and a solution of 10% DMSO, 10% cremaphor in water (80%) (PO administration). […] Serial blood samples were collected via the cannula at 0.02, 0.08, 0.25, 0.5, 1, 2, 4, 6, 8 and 24 h post IV dosing of compound, and at 0.08, 0.25, 0.5, 1, 2, 4, 6, 8 and 24 h post oral dosing of compound, and plasma was prepared by centrifugation and stored immediately at −80° C. Samples were subsequently thawed, prepared for analysis by protein precipitation with acetonitrile, and analysed by tandem LCMS using electrospray ionisation using a matrix-matched calibration curve. PK parameters were calculated from the resulting data.

The next series has as its system RSV. Conditions: Antimicrobial Agents and Chemotherapy, Sept. 2007, 3346-3353; cited from earlier work.
Where [8] appears, read: IV 1 mg/kg, read-out: IV t1/2 (converted).
Where [9] appears, read: PO 10 mg/kg, read-out: PO t1/2 (converted).

Results on five compounds are retold here after patent publication US20240173332A1, “BENZO[…] TREATING OR PREVENTING RESPIRATORY SYNCYTIAL VIRUS INFECTION” (Pfizer Inc., priority 2021, published 2024).

Read-outs that look alike come from different tables or passages of the source.

For `O=C(N[C@H]1N=C(c2ccccc2)c2cccc(F)c2NC1=O)c1c(-c2ccc(CO)cc2F)nn2cccnc12` [Example 1, 2-[2-Fluoro-4-(hydroxymethyl)phenyl]-N-[(35)-9-fluoro-2-oxo-5-phenyl-1,3-dihydro-1,4-benzodiazepin-3-yl]pyrazolo[1,5-a]pyrimidine-3-carboxamide], the EC50 with RSV A2 turned out to be 18 nM. Further, the CC50 in the series “Cell cytotoxicity CC50” is above 25000 nM. For the same compound, the half-life at 1 μM in [1] was found to be 0.69 h; in series [2] it was 10.6 h; in series [3] it was 5.48 h. For the same compound, the half-life at 3 μM in [4] turned out to be 1.38 h; in [5], 2.62 h; in series [6], 5.55 h. The figures for the half-life in series [7] (setting [8]) and in series [7] (setting [9]) were 1.5 h and 3.1 h, respectively. In series [7] (PO 10 mg/kg), the Vd was determined as 0.75 L/kg. In addition, the clearance in [7] (PO 10 mg/kg) is 11.5 mL/min/kg. In [7] (PO 10 mg/kg), the highest level (Cmax) was 788 ng/mL. Besides, the AUC(0-t) in series [7] (PO 10 mg/kg) turned out to be 3880 ng·h/mL. Further, in series [7], the F was found to be 25.6%.
For `CC(C)n1cc(-c2nn3cccnc3c2C(=O)N[C@H]2N=C(c3ccccc3)c3cccc(F)c3NC2=O)cn1` [Example 4, N-[(3S)-9-fluoro-2-oxo-5-phenyl-1,3-dihydro-1,4-benzodiazepin-3-yl]-2-(1-propan-2-ylpyrazol-4-yl)pyrazolo[1,5-a]pyrimidine-3-carboxamide], the concentration giving a half-maximal response (EC50) with RSV A2 amounted to 37 nM. For the same compound, in “Cell cytotoxicity CC50”, the half-maximal cytotoxic concentration (CC50) was above 25000 nM. The half-life at 1 μM in series [1] was 2.63 h; in [2], 2.62 h; in [3] it was 6.58 h. Besides, the half-life at 3 μM was 2.17 h in [4], 1.4 h in series [5] and 3.78 h in series [6]. Moreover, the half-life in series [7] (setting [8]) is 4.4 h; in series [7] (setting [9]) it was 3.7 h. Besides, in [7] (PO 10 mg/kg), the Vd was 0.49 L/kg. Further, the clearance in series [7] (PO 10 mg/kg) is 1.9 mL/min/kg. This compound showed a Cmax in series [7] (PO 10 mg/kg) of 4790 ng/mL. In [7] (PO 10 mg/kg), the AUC(0-t) came to 57100 ng·h/mL. In series [7], this compound came in with an F of 54.6%.
For the compound `CS(=O)(=O)c1ccc(-c2nn3cccnc3c2C(=O)N[C@H]2N=C(c3ccccc3)c3cccc(F)c3NC2=O)c(F)c1` [Example 7, 2-(2-Fluoro-4-methylsulfonylphenyl)-N-[(3S)-9-fluoro-2-oxo-5-phenyl-1,3-dihydro-1,4-benzodiazepin-3-yl]pyrazolo[1,5-a]pyrimidine-3-carboxamide], in the series on RSV A2, the EC50 came to 9 nM. In “Cell cytotoxicity CC50”, this compound gave a CC50 above 25000 nM. In addition, the half-life at 3 μM in series [4] is 85.7 h; in series [5], 0.95 h; in series [6], 6.28 h. The half-life is 1.6 h in series [7] (setting [8]) and 2.5 h in series [7] (setting [9]). Besides, in series [7] (PO 10 mg/kg), the Vd amounted to 1.4 L/kg. In series [7] (PO 10 mg/kg), this compound displayed a clearance of 13.1 mL/min/kg. Further, the concentration in [7] (PO 10 mg/kg) peaked (Cmax) at 2340 ng/mL. Besides, the AUC(0-t) in series [7] (PO 10 mg/kg) was 24800 ng·h/mL. In addition, the F in series [7] is 188%.
On to `O=C(N[C@H]1N=C(c2ccccc2)c2cccc(F)c2NC1=O)c1c(-c2cccc(CO)c2F)nn2cccnc12` [Example 18, 2-[2-Fluoro-3-(hydroxymethyl)phenyl]-N-[(3S)-9-fluoro-2-oxo-5-phenyl-1,3-dihydro-1,4-benzodiazepin-3-yl]pyrazolo[1,5-a]pyrimidine-3-carboxamide], for which the concentration for a half-maximal effect (EC50) with RSV A2 worked out at 44 nM. Moreover, in the series “Cell cytotoxicity CC50”, the cytotoxic concentration (CC50) was above 25000 nM. The results for the half-life at 1 μM in series [1], in series [2] and in series [3] were 0.983 h, 6.5 h and 8.83 h, respectively. In addition, the half-life at 3 μM is 1.57 h in series [4], above 3 h in series [5] and above 3 h in series [6].
As for `O=C(Nc1ccccc1F)N[C@H]1N=C(c2ccccc2)c2ccccc2NC1=O` [RSV604], the anti-RSV activity entry in the series on RSV is “sub-micromolar”.
